# Measured values published in article PMC12059162 (Scientific Reports, 2025).
# Marks after values point to notes of the source that are not given here.
# Experiments:
# [1] = test system: PANC-1 cells; test: xCELLigence SP impedimetric cell viability; conditions: for IC50 / viability at 0.5 µM / viability at 10 µM / viability at 25 µM: Homo sapiens, PANC-1, 72 h; for IC50: read-out: IC50 values (μM) 72 hours; for viability at 0.5 µM: read-out: Viability (%) after 72-h treatment, PANC-1, 0.5 μM, 72 h, mean ± SD (n = 3); for viability at 10 µM: read-out: Viability (%) after 72-h treatment, PANC-1, 10 μM, 72 h, mean ± SD (n = 3); for viability at 25 µM: read-out: Viability (%) after 72-h treatment, PANC-1, 25 μM, 72 h, mean ± SD (n = 3)
# [2] = test system: cIAP-1; test: Human Apoptosis Array in PANC-1 cells; conditions: PANC-1, 0.5 µM, 72 h
# [3] = alamarBlue cell viability, cardiotoxicity; conditions: mouse, HL-1 cardiomyocytes
# [4] = test system: MIA PaCa-2 cells; test: alamarBlue cell viability; conditions: Homo sapiens, MIA PaCa-2, 72 h; for viability at 0.5 µM / viability at 10 µM / viability at 25 µM: read-out: Viability (%) after 72-h treatment
# [5] = test system: PANC-1 cells; test: Cell cycle analysis (PI, flow cytometry); conditions: for Effect on cell cycle: PANC-1, 0.5 µM, 48 h; for Increase in cell number in the G2/M phase: PANC-1, 10 and 25 µM, 72 h
# [6] = test system: FADD; test: Human Apoptosis Array in PANC-1 cells; conditions: PANC-1, 0.5 µM, 72 h
# [7] = test system: DR4; test: Human Apoptosis Array in PANC-1 cells; conditions: PANC-1, 0.5 µM, 72 h
# [8] = test system: DR5; test: qPCR apoptotic gene expression in PANC-1 cells; conditions: PANC-1, 25 µM
# [9] = test system: phospho-p53 (S15); test: Human Apoptosis Array in PANC-1 cells; conditions: PANC-1, 0.5 µM, 72 h
# [10] = test system: A2058 cells; test: alamarBlue cell viability; conditions: Homo sapiens, A2058, 72 h; for IC50: read-out: IC50 values (μM) 72 hours; for viability at 0.5 µM / viability at 10 µM / viability at 25 µM: read-out: Viability (%) after 72-h treatment
# [11] = test system: HSP60; test: Human Apoptosis Array in PANC-1 cells; conditions: PANC-1, 0.5 µM, 72 h
# [12] = alamarBlue cell viability, healthy cells; conditions: human, NHDF cells
# [13] = test system: MIA PaCa-2 cells; test: Cell cycle analysis (PI, flow cytometry); conditions: MIA PaCa-2, 0.5 µM; for Effect on cell cycle: 48 h
# [14] = test system: PANC-1 cells; test: Annexin-V/7AAD early and late apoptosis flow cytometry; type: cell-based, human; conditions: PANC-1, 0.5 µM, 72 h; for Ratio of late apoptotic cells: control 0.9%; for Ratio of AnnexinV+ and 7AAD- (early apoptotic) cells: control 21.1%
# Procedure: For apoptosis measurements, Annexin-V positive/7AAD (7-Aminoactinomycin D) negative, early apoptotic and Annexin-V/ 7AAD double positive, late apoptotic cells were differentiated using a BD FACSCalibur (BD FACSCalibur, Becton-Dickinson, San Jose, CA, USA) flow cytometer[49],[50]. […] After 24, 48, and 72 h treatment, cells were harvested with 300 µL TrypLE (Sigma Ltd. St. Louis, MO, USA). Fresh cell culture medium was then added to stop the effect of TrypLE and the harvested cells were centrifuged for 5 min (300 g). Then, the supernatant was removed, and cells were resuspended in 300 µL of Annexin binding buffer (Sony Biotechnology, Weybridge, UK). For labelling, 3–3 µL of Annexin-V-FITC (Sony Biotechnology, Weybridge, UK) and 7AAD (Sony Biotechnology, Weybridge, UK) were added, followed by 10 min incubation at room temperature in the dark. For flow cytometric analysis (BD FACSCalibur, Becton–Dickinson, San Jose, CA, USA), a minimum of 10^4 cells/sample was measured. Annexin-V was detected using the FL-1 channel (530/30), and 7AAD was detected using the FL-3 channel (670 LP). In each treatment group, 3 parallel samples were analysed. The results were evaluated using Flowing Software 2.5.1 (Turku Centre of Biotechnology, Turku, Finland).
# [15] = test system: p53; test: qPCR apoptotic gene expression in PANC-1 cells; conditions: PANC-1, 25 µM, normalised to DMSO control
# [16] = test system: phospho-p53 (S46); test: Human Apoptosis Array in PANC-1 cells; conditions: PANC-1, 0.5 µM, 72 h
# [17] = test system: pro-caspase-3; test: Human Apoptosis Array in PANC-1 cells; conditions: PANC-1, 0.5 µM, 72 h
# [18] = test system: PANC-1 cells; test: Holographic microscopy morphometry (HoloMonitor M4); type: cell-based, human; conditions: 72 h
# Procedure: To follow the morphometric changes, a holographic transmission microscope (HoloMonitor M4; Phase Holographic Imaging AB, Lund, Sweden) was used, which uses a laser to produce 3D images of the cells[51],[52]. This […] imaging technique allows us to monitor cell morphological changes in real-time. First, the cells were seeded at a concentration of 3.5 × 10^5 cells/flask/4000 µL cell culture medium. […] At least 5 images were taken from each culture dish, taking care to assess different fields of view. These images were evaluated using the microscope software (Hstudio M4). We assessed the average area and the average optical thickness of the cells.
# [19] = test system: TRAIL; test: qPCR apoptotic gene expression in PANC-1 cells; conditions: PANC-1, 25 µM
# [20] = test system: EBC-1 cells; test: alamarBlue cell viability; conditions: for viability at 0.5 µM: read-out: Viability (%) after 72-h treatment, EBC-1, 0.5 μM, 72 h, mean ± SD (n = 3); for viability at 10 µM: read-out: Viability (%) after 72-h treatment, EBC-1, 10 μM, 72 h, mean ± SD (n = 3); for viability at 25 µM: read-out: Viability (%) after 72-h treatment, EBC-1, 25 μM, 72 h, mean ± SD (n = 3)
# [21] = test system: COLO-205 cells; test: alamarBlue cell viability; conditions: Homo sapiens, COLO 205, 72 h; for viability at 0.5 µM / viability at 10 µM / viability at 25 µM: read-out: Viability (%) after 72-h treatment
# [22] = test system: caspase-3/7; test: CellEvent Caspase-3/7 activity imaging in PANC-1 cells; conditions: PANC-1, 0.5 µM, 72 h, normalised to DMSO control (n = 1)
# [23] = read-out: IC50 values (μM) 72 hours
compound,measurement,setting,value
O=C1C2=C(CCN(Cc3ccccc3)C2)N2CCN=C2N1Cc1ccc(F)cc1 [TBP-134],IC50,[1],0.35 µM
same,viability at 0.5 µM,[1],13.4%
same,viability at 10 µM,[1],7.4 ± 0.3%
same,viability at 25 µM,[1],6.1 ± 0.9%
same,Viability (%) after 72-h treatment,"[1]; PANC-1, 0.5 μM, 72 h, mean ± SD (n = 3), 0.5 µM",13.2 ± 1.4^z %
same,cIAP-1 protein level,[2],undetectable
same,"viability at 72 h, 0.5 µM",[3],89.9 ± 5.2%
same,"viability at 72 h, 10 µM",[3],88.4 ± 5%
same,"viability at 72 h, 25 µM",[3],82 ± 2.3%
same,IC50,[4]; [23],0.67 µM
same,viability at 0.5 µM,[4],48.9 ± 2.9%
same,viability at 10 µM,[4],65 ± 4.9%
same,viability at 25 µM,[4],59 ± 5.5%
same,Effect on cell cycle,[5],strong G2/M phase arrest
same,Increase in cell number in the G2/M phase,[5],2.2 fold
same,FADD protein level,[6],decrease
same,DR4 protein level,[7],significant increase
same,DR5 mRNA expression,"[8]; 12 h, normalised to DMSO control",2.3 fold
same,phospho-p53 (S15) protein level,[9],decrease
same,IC50,[10],0.34 µM
same,viability at 0.5 µM,[10],51.4 ± 2.4%
same,viability at 10 µM,[10],47.7 ± 3.5%
same,viability at 25 µM,[10],44.7 ± 2.8%
same,HSP60 protein level,[11],significant increase
same,"viability at 72 h, 0.5 µM",[12],61.5 ± 0.5%
same,"viability at 72 h, 10 µM",[12],46.2 ± 3.4%
same,"viability at 72 h, 25 µM",[12],48.3 ± 1.2%
same,Effect on cell cycle,[13],strong G2/M phase arrest
same,subG1 phase (percentage of cells),"[13]; 72 h, control 5.6%",20.8%
same,"Early apoptotic cells, fold increase",[14],2.1 fold
same,"Late apoptotic cells, fold increase",[14],4.2 fold
same,Ratio of late apoptotic cells,[14],3.8%
same,Ratio of AnnexinV+ and 7AAD- (early apoptotic) cells,[14],43.8%
same,p53 mRNA expression,[15]; 48 h,3.7 fold
same,phospho-p53 (S46) protein level,[16],decrease
same,pro-caspase-3 protein level,[17],decrease
same,Average cell area,"[18]; PANC-1, 25 µM",376 µm^2
same,"Average cell area, fold decrease vs DMSO","[18]; PANC-1, 25 µM",1.7 fold
same,TRAIL induction (mRNA),[19]; any of the time points (3-48 h),not detected
same,Viability (%) after 72-h treatment,"[20]; EBC-1, 0.5 μM, 72 h, mean ± SD (n = 3), 0.5 µM",52.3 ± 1.5^z %
same,viability at 0.5 µM,"[20]; Homo sapiens, EBC-1, 72 h",52.2%
same,viability at 10 µM,"[20]; Homo sapiens, EBC-1, 72 h",51.7 ± 0.7%
same,viability at 25 µM,"[20]; Homo sapiens, EBC-1, 72 h",50.5 ± 2%
same,IC50,[21]; [23],0.25 µM
same,viability at 0.5 µM,[21],45.5 ± 1.3%
same,viability at 10 µM,[21],48.8 ± 1.6%
same,viability at 25 µM,[21],54.3 ± 0.6%
O=C1C2=C(CCN(Cc3ccccc3)C2)N2CCN=C2N1Cc1cccc(F)c1 [TBP-135],IC50,[1],1.8 µM
same,viability at 0.5 µM,[1],106 ± 2.4%
same,viability at 10 µM,[1],8.8 ± 0.1%
same,viability at 25 µM,[1],9.2 ± 4.6%
same,cIAP-1 protein level,[2],significantly increased
same,"viability at 72 h, 0.5 µM",[3],98.8 ± 1.5%
same,"viability at 72 h, 10 µM",[3],86.8 ± 3.2%
same,"viability at 72 h, 25 µM",[3],88.3 ± 2.8%
same,viability at 0.5 µM,[4],63.5 ± 2.6%
same,viability at 10 µM,[4],62.7 ± 7.8%
same,viability at 25 µM,[4],65.5 ± 7.9%
same,Effect on cell cycle,[5],G1 phase block
same,Increase in cell number in the G2/M phase,[5],2.2 fold
same,DR4 protein level,[7],significantly increased
same,DR5 mRNA expression,[8]; 3 h,significantly upregulated
same,DR5 mRNA expression,"[8]; 24 h, normalised to DMSO control",5.9 fold
same,phospho-p53 (S15) protein level,[9],significantly increased
same,IC50,[10],1.75 µM
same,viability at 0.5 µM,[10],74.9 ± 1.1%
same,viability at 10 µM,[10],47 ± 4.7%
same,viability at 25 µM,[10],46.8 ± 2.9%
same,HSP60 protein level,[11],significantly increased
same,"viability at 72 h, 0.37 µM",[12],111 ± 2.9%
same,"viability at 72 h, 8.6 µM",[12],65.9 ± 1.8%
same,"viability at 72 h, 25 µM",[12],71.4 ± 12.3%
same,Effect on cell cycle,[13],did not affect
same,"Early apoptotic cells, fold increase",[14],2.5 fold
same,"Late apoptotic cells, fold increase",[14],3.5 fold
same,Ratio of late apoptotic cells,[14],3.2%
same,Ratio of AnnexinV+ and 7AAD- (early apoptotic) cells,[14],53.5%
same,p53 mRNA expression,[15]; 24 h,2.9 fold
same,phospho-p53 (S46) protein level,[16],significantly increased
same,pro-caspase-3 protein level,[17],significantly increased
same,"Average cell area, fold decrease vs DMSO","[18]; PANC-1, 0.5 µM",1.9 fold
same,"Average optical thickness, fold increase vs DMSO","[18]; PANC-1, 0.5 µM",4.1 fold
same,Average optical thickness,"[18]; PANC-1, 0.5 µM, DMSO 1.45 μm",5.9 μm
same,Average cell area,"[18]; PANC-1, 0.5 µM, DMSO 630 µm^2",338.5 µm^2
same,TRAIL mRNA expression,"[19]; 3 h, normalised to DMSO control",2.4 fold
same,IC50,"[20]; Homo sapiens, EBC-1, 72 h, read-out: IC50 values (μM) 72 hours",2.5 µM
same,viability at 0.5 µM,"[20]; Homo sapiens, EBC-1, 72 h",66.6 ± 4.1%
same,viability at 10 µM,"[20]; Homo sapiens, EBC-1, 72 h",71.8 ± 31.1%
same,viability at 25 µM,"[20]; Homo sapiens, EBC-1, 72 h",48 ± 4%
same,viability at 0.5 µM,[21],74.7 ± 0.6%
same,viability at 10 µM,[21],52.6 ± 4.1%
same,viability at 25 µM,[21],54.2 ± 3.2%
same,"Number of caspase-3/7 active cells, increase",[22],7.8 fold
